According to US6638955B2, “Antibiotic oxazolidinone derivatives” (priority 1996, dated 2003):
In brackets after ≈: the same amount, converted by molar mass.

Legend:
Assay in all cases: MIC, agar-dilution, standard in-vitro test
Format in all cases: cell-based
Bacillus subtilis = settings: 10^4 CFU/spot
Description: (§1) The following results were obtained on a standard in-vitro test system. The activity is described in terms of the minimum inhibitory concentration (MIC) determined by the agar-dilution technique with an inoculum size of 10^4 CFU/spot.

[1] = tested on: Staphylococcus aureus Oxford; settings: 10^4 CFU/spot, 37° C., 24 hours
Protocol: as §1
(§2) Staphylococci were tested on agar, using an inoculum of 10^4 CFU/spot and an incubation temperature of 37° C. for 24 hours—standard test conditions for the expression of methicillin resistance.

[2] = tested on: Coagulase Negative Staphylococcus MR (methicillin resistant); settings: 10^4 CFU/spot, 37° C., 24 hours
Protocol: as §1, §2

[3] = tested on: Coagulase Negative Staphylococcus MS (methicillin sensitive); settings: 10^4 CFU/spot, 37° C., 24 hours
Protocol: as §1, §2

[4] = tested on: Staphylococcus aureus MRQS (methicillin resistant quinolone sensitive); settings: 10^4 CFU/spot, 37° C., 24 hours
Protocol: as §1, §2

[5] = tested on: Staphylococcus aureus Novb. Res (Novobiocin resistant); settings: 10^4 CFU/spot, 37° C., 24 hours
Protocol: as §1, §2

[6] = tested on: Staphylococcus aureus MRQR (methicillin resistant quinolone resistant); settings: 10^4 CFU/spot, 37° C., 24 hours
Protocol: as §1, §2

[7] = tested on: Streptococcus pyogenes C203; settings: agar with 5% defibrinated horse blood, 10^4 CFU/spot, 37° C., 5% carbon dioxide, 48 hours
Protocol: as §1
(§3) Streptococci and enterococci were tested on agar supplemented with 5% defibrinated horse blood, an inoculum of 10^4 CFU/spot and an incubation temperature of 37° C. in an atmosphere of 5% carbon dioxide for 48 hours—blood is required for the growth of some of the test organisms.

Enterococcus faecalis = settings: agar with 5% defibrinated horse blood, 10^4 CFU/spot, 37° C., 5% carbon dioxide, 48 hours
Protocol: as §1, §3

CC(=O)NC[C@H]1CN(c2ccc(C3=CCN(C(=O)OC(C)(C)C)CC3)cc2)C(=O)O1 [Example 1, N-((5S)-3-(4-(1-tert-butoxycarbonyl-1,2,5,6-tetrahydropyrid-4-yl)phenyl)-2-oxoxazolidin-5yl-methyl)acetamide]
MIC (Bacillus subtilis): 0.25 µg/mL (≈ 0.602 µM)
MIC [1]: 1.0 µg/mL (≈ 2.41 µM)
MIC [2]: 1.0 µg/mL (≈ 2.41 µM)
MIC [3]: 0.25 µg/mL (≈ 0.602 µM)
MIC [4]: 0.5 µg/mL (≈ 1.2 µM)
MIC [5]: 0.5 µg/mL (≈ 1.2 µM)
MIC [6]: 0.5 µg/mL (≈ 1.2 µM)
MIC [7]: 1.0 µg/mL (≈ 2.41 µM)
MIC (Enterococcus faecalis): 1.0 µg/mL (≈ 2.41 µM)
